Measurements taken from patent US8791132B2, “Compounds and methods for treatment of hypertension” (Medivation Technologies, Inc., priority 2011, dated 2014).
Like-named read-outs stand apart in the source and are kept apart here. Blank lines part the entries; values can stand above or below the compound they belong to.

Experiments:
[1] = molecular target: T1, human recombinant adrenergic α2A receptor (Homo sapiens, UniProt P08913); assay: Radioligand binding, adrenergic α2A ([3H]MK-912); settings: for Percentage inhibition of ligand binding, Adrenergic α2A / Percentage inhibition of ligand binding, Adrenergic α2A (0.1 μM): 0.1 µM
T1 construct: expressed in transfected cells; host or cells: insect Sf9 cells
T1 sequence (P08913 1-465): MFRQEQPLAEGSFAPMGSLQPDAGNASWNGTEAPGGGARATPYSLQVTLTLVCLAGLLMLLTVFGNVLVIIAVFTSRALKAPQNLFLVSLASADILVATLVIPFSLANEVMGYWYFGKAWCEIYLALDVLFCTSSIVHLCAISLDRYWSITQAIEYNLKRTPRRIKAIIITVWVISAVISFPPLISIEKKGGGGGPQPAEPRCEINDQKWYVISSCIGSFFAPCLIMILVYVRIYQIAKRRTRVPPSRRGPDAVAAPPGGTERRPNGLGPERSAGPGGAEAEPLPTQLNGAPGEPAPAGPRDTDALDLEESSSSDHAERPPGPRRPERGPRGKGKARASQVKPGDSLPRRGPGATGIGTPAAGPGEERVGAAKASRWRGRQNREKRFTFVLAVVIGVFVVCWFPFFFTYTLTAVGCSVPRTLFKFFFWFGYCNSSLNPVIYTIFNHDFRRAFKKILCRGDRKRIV
Method in brief: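 In 50 mM Tris-HCl (pH 7.4) containing 12.5 mM MgCl2 and 2 mM EDTA, Sf9-expressed receptor was exposed to test compound plus 1 nM [3H]MK-912 at 25 °C for 60 min. Specific binding, corrected using 10 μM WB-4101, was quantified by filtration and counting and expressed as percent inhibition.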

[2] = molecular target: T2, rat adrenergic α1B receptor (Rattus norvegicus, UniProt P15823); assay: Radioligand binding, adrenergic α1B ([3H]Prazosin); settings: for Percentage inhibition of ligand binding, Adrenergic α1B / Percentage inhibition of ligand binding, Adrenergic α1B (0.1 μM): 0.1 µM
T2 construct: rat adrenergic α1B receptor obtained from Wistar Rat liver; from tissue; host or cells: Wistar rat liver
T2 sequence (P15823 1-515): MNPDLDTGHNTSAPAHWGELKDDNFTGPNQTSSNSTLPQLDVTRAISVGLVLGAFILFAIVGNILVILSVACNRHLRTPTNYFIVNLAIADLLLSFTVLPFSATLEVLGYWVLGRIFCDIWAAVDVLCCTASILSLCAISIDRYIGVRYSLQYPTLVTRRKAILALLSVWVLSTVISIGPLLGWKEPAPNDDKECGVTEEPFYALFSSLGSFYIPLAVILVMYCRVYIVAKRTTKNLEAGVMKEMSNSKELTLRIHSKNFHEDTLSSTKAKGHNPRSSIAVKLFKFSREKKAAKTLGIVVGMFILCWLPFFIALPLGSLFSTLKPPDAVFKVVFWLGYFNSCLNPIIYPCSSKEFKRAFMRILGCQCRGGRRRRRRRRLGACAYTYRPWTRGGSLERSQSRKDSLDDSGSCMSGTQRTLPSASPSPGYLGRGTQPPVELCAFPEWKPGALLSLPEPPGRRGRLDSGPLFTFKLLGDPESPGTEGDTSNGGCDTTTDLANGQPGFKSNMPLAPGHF
Method in brief: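 Filter binding with Wistar rat liver α1B preparation: test compound plus 0.25 nM [3H]prazosin, 1 h at 25° C in modified Tris-HCl buffer pH 7.4.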

[3] = molecular target: T3, human recombinant adrenergic α2B receptor (Homo sapiens, UniProt P18089); assay: Radioligand binding, adrenergic α2B ([3H]Rauwolscine); settings: for Percentage inhibition of ligand binding, Adrenergic α2B / Percentage inhibition of ligand binding, Adrenergic α2B (0.03 μM): 0.03 µM
T3 construct: expressed in transfected cells; host or cells: CHO-K1
T3 sequence (P18089 1-450): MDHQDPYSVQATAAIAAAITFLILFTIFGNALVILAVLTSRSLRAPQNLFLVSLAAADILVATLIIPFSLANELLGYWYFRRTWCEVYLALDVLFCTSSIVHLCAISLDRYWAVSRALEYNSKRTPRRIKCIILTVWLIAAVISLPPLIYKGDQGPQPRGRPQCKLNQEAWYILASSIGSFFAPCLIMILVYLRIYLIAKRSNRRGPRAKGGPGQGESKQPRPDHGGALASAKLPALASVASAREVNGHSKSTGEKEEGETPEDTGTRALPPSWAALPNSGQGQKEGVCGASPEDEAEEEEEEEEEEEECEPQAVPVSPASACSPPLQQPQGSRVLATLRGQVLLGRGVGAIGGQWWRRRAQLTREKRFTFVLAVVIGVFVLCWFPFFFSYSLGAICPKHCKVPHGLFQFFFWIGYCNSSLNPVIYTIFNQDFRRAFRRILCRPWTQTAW
Method in brief: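 Membranes from CHO-K1 cells expressing human recombinant α2B, in 50 mM Tris-HCl pH 7.4, 12.5 mM MgCl2, 1 mM EDTA, 0.2% BSA, incubated with compound and 2.5 nM [3H]Rauwolscine, 60 min, 25 °C.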

[4] = compound at 0.1 μM, [3H]MK-912, repeat assays, each datapoint shown
[5] = compound at 0.1 μM, [3H]Prazosin, repeat assays, each datapoint shown
[6] = compound at 0.03 μM, [3H]Rauwolscine, repeat assays, each datapoint shown
[7] = read-out: Percentage inhibition of ligand binding, Adrenergic α2A (0.1 μM), compound at 0.1 μM, [3H]MK-912, repeat datapoints each shown
[8] = read-out: Percentage inhibition of ligand binding, Adrenergic α1B (0.1 μM), compound at 0.1 μM, [3H]Prazosin, repeat datapoints each shown
[9] = read-out: Percentage inhibition of ligand binding, Adrenergic α2B (0.03 μM), compound at 0.03 μM, [3H]Rauwolscine, repeat datapoints each shown
[10] = compound at 0.1 μM, [3H]MK-912, repeat datapoints each shown
[11] = compound at 0.1 μM, [3H]Prazosin, repeat datapoints each shown
[12] = compound at 0.03 μM, [3H]Rauwolscine, repeat datapoints each shown
[13] = compound at 0.1 μM, [3H]MK-912, repeat assays, each datapoint shown, read-out: Percentage inhibition of ligand binding, Adrenergic α2A
[14] = compound at 0.03 μM, [3H]Rauwolscine, repeat assays, each datapoint shown, read-out: Percentage inhibition of ligand binding, Adrenergic α2B

Structure (SMILES): Cc1cnc2c(c1)c1c(n2CC(O)c2ccncc2)CCNC1 (single isomer, unassigned) [58a, 2-(3-methyl-5,6,7,8-tetrahydro-1,6,9-triaza-fluoren-9-yl)-1-pyridin-4-yl-ethanol]
Percentage inhibition of ligand binding, Adrenergic α2A [1, 4]: 9%
Percentage inhibition of ligand binding, Adrenergic α1B [2, 5]: 7%
Percentage inhibition of ligand binding, Adrenergic α2B [3, 6]: 5%

Structure (SMILES): COc1ccc(C(O)Cn2c3c(c4cc(C)ccc42)CN(C)CC3)cn1 (single isomer, unassigned) [51b, 2-(2,8-dimethyl-1,2,3,4-tetrahydro-pyrido[4,3-b]indol-5-yl)-1-(6-methoxy-pyridin-3-yl)-ethanol]
Percentage inhibition of ligand binding, Adrenergic α2A [1, 4]: 26%
Percentage inhibition of ligand binding, Adrenergic α1B [2, 5]: 36%
Percentage inhibition of ligand binding, Adrenergic α2B [3, 6]: 90%

Structure (SMILES): Cc1cnc2c(c1)c1c(n2CC(C)(O)c2ccc(C)nc2)CCN2CCCC12 (single isomer, unassigned) [148c]
Percentage inhibition of ligand binding, Adrenergic α2A (0.1 μM) [1, 10]: −1%
Percentage inhibition of ligand binding, Adrenergic α1B (0.1 μM) [2, 11]: 6%
Percentage inhibition of ligand binding, Adrenergic α2B (0.03 μM) [3, 12]: 16%

Structure (SMILES): Cc1ccc2c(c1)c1c(n2CC(O)c2ccncc2)CC2CCCCN2C1 (racemic) [75c]
Percentage inhibition of ligand binding, Adrenergic α2A [1, 4]: −2%
Percentage inhibition of ligand binding, Adrenergic α1B [2, 5]: 59%
Percentage inhibition of ligand binding, Adrenergic α2B [3, 6]: 11%

Structure (SMILES): Cc1ccc(CCn2c3c(c4cc(Cl)cnc42)C2CCCN2CC3)cn1 (single isomer, unassigned) [137b]
Percentage inhibition of ligand binding, Adrenergic α2A (0.1 μM) [1, 10]: 6%
Percentage inhibition of ligand binding, Adrenergic α1B (0.1 μM) [2, 11]: 23%
Percentage inhibition of ligand binding, Adrenergic α2B (0.03 μM) [3, 12]: 30%

Structure (SMILES): CN1CCc2c(c3ccc(C(F)(F)F)cc3n2CC(O)c2cccnc2)C1 (single isomer, unassigned) [40a]
inhibition at 0.1 µM [1, 13]: 7%
Percentage inhibition of ligand binding, Adrenergic α1B [2, 5]: 2%
inhibition at 0.03 µM [3, 14]: 27%

Structure (SMILES): Cc1ccc2c(c1)c1c(n2CC(O)c2ccncc2)CN(C)CC1 (single isomer, unassigned) [8b]
Ki [1]: 2100 nM
Percentage inhibition of ligand binding, Adrenergic α2A [1, 4]: 12%
inhibition at 0.1 µM [1, 13]: 8%
inhibition at 0.03 µM ([2]; compound at 0.03 μM, [3H]Prazosin, repeat assays, each datapoint shown, read-out: Percentage inhibition of ligand binding, Adrenergic α1B): 24%
Percentage inhibition of ligand binding, Adrenergic α1B [2, 5]: 63%
inhibition at 0.1 µM ([2]; compound at 0.1 μM, [3H]Prazosin, repeat assays, each datapoint shown, read-out: Percentage inhibition of ligand binding, Adrenergic α1B): 61%
inhibition at 0.03 µM [3, 14]: 49%
inhibition at 0.1 µM ([3]; compound at 0.1 μM, [3H]Rauwolscine, repeat assays, each datapoint shown, read-out: Percentage inhibition of ligand binding, Adrenergic α2B): 78%
Ki ([3]; read-out: Ki α2B): 11.7 nM

Structure (SMILES): OC(Cn1c2c(c3cc(Cl)ccc31)CNCC2)c1ccncc1 (single isomer, unassigned) [10b, 2-(8-chloro-1,2,3,4-tetrahydro-pyrido[4,3-b]indol-5-yl)-1-pyridin-4-yl-ethanol]
Percentage inhibition of ligand binding, Adrenergic α2A [1, 4]: 15%
Percentage inhibition of ligand binding, Adrenergic α1B [2, 5]: 28%
Percentage inhibition of ligand binding, Adrenergic α2B [3, 6]: 91%

Structure (SMILES): Cc1ccc2c(c1)c1c(n2CC(C)(OC(=O)C(C)C)c2cccnc2)CCN(C)C1 (single isomer, unassigned) [146a]
Percentage inhibition of ligand binding, Adrenergic α2A (0.1 μM) [1, 10]: −1%
Percentage inhibition of ligand binding, Adrenergic α1B (0.1 μM) [2, 11]: 41%
Percentage inhibition of ligand binding, Adrenergic α2B (0.03 μM) [3, 12]: 37%

Next, values leading:

inhibition at 0.1 µM [1, 7]: -2%
inhibition at 0.1 µM [2, 8]: 7%
inhibition at 0.03 µM [3, 9]: 22%
Structure (SMILES): Cc1ccc2c(c1)c1c(n2CC(C)(O)c2cncc(C(=O)O)c2)CCN(C)C1 (stereo not drawn) [II-141, 5-(1-(1,2,3,4-tetrahydro-2,8-dimethylpyrido[4,3-b]indol-5-yl)-2-hydroxypropan-2-yl)pyridine-3-carboxylic acid]

Percentage inhibition of ligand binding, Adrenergic α2A (0.1 μM) [1, 10]: 18%
Percentage inhibition of ligand binding, Adrenergic α1B (0.1 μM) [2, 11]: 7%
inhibition at 0.03 µM [3, 9]: 52%
Structure (SMILES): Cc1cnc2c(c1)c1c(n2CCc2cnc(C)nc2)CCN2CCCC12 (single isomer, unassigned) [IV-93a]

Percentage inhibition of ligand binding, Adrenergic α2A (0.1 μM) [1, 10]: 5%
Percentage inhibition of ligand binding, Adrenergic α1B (0.1 μM) [2, 11]: 13%
Percentage inhibition of ligand binding, Adrenergic α2B (0.03 μM) [3, 12]: 43%
Structure (SMILES): Cc1ccc2c(c1)c1c(n2CC(C)(O)c2cccnc2)CC(C)N(C)C1 (single isomer, unassigned) [II-146b, 2-(pyridin-3-yl)-1-(2,3,8-trimethyl-3,4-dihydro-1H-pyrido[4,3-b]indol-5(2H)-yl)propan-2-ol]

Percentage inhibition of ligand binding, Adrenergic α2A (0.1 μM) [1, 10]: 47%
inhibition at 0.1 µM [2, 8]: 23%
Percentage inhibition of ligand binding, Adrenergic α2B (0.03 μM) [3, 12]: 102%
Structure (SMILES): Cc1ccc2c(c1)c1c(n2CC(C)(O)c2cccnc2)CC(C)N(C)C1 (single isomer, unassigned) [II-146a, 2-(pyridin-3-yl)-1-(2,3,8-trimethyl-3,4-dihydro-1H-pyrido[4,3-b]indol-5(2H)-yl)propan-2-ol]

Percentage inhibition of ligand binding, Adrenergic α2A [1, 4]: −4%
Percentage inhibition of ligand binding, Adrenergic α1B [2, 5]: 5%
Percentage inhibition of ligand binding, Adrenergic α2B [3, 6]: 36%
Structure (SMILES): Cc1ccc2c(c1)c1c(n2CC(O)c2cccnc2)CCNC1 (stereo not drawn) [compound 9, 2-(8-methyl-1,2,3,4-tetrahydro-pyrido[4,3-b]indol-5-yl)-1-pyridin-3-yl-ethanol]

Percentage inhibition of ligand binding, Adrenergic α2A (0.1 μM) [1, 10]: 5%
inhibition at 0.1 µM [2, 8]: 23%
inhibition at 0.03 µM [3, 9]: 76%
Structure (SMILES): Cc1ccc2c(c1)c1c(n2CC(OC(=O)N(C)C)c2ccncc2)CCN(C)C1 (stereo not drawn) [compound 141, N,N-dimethyl-carbamic acid 2-(2,8-dimethyl-1,2,3,4-tetrahydro-pyrido[4,3-b]indol-5-yl)-1-pyridin-4-yl-ethyl ester]

inhibition at 0.1 µM ([1]; 0.1 μM compound, read-out: Percentage inhibition of ligand binding, Adrenergic α2A): 9%
inhibition at 0.1 µM ([2]; 0.1 μM compound, read-out: Percentage inhibition of ligand binding, Adrenergic α1B): 6%
inhibition at 0.03 µM ([3]; 0.03 μM compound, read-out: Percentage inhibition of ligand binding, Adrenergic α2B): 70%
Structure (SMILES): CCNC(Cn1c2c(c3cc(C)ccc31)CN(C)CC2)c1ccncc1 (stereo not drawn) [II-8, [2-(2,8-dimethyl-1,2,3,4-tetrahydro-pyrido[4,3-b]indol-5-yl)-1-pyridin-4-yl-ethyl]-ethyl-amine]

inhibition at 0.1 µM [1, 7]: 83%
inhibition at 0.1 µM [2, 8]: 3%
inhibition at 0.03 µM [3, 9]: 19%
Structure (SMILES): Cc1ccc(CCn2c3c(c4c(Br)ccc(Cl)c42)CN(C)CC3)cn1 [II-247, 9-bromo-6-chloro-2,3,4,5-tetrahydro-2-methyl-5-(2-(6-methylpyridin-3-yl)ethyl)-1H-pyrido[4,3-b]indole]
